The text below walks through data of US10154988B2, “Methods and compositions for treating schizophrenia” (The Johns Hopkins University, priority 2012, dated 2018).

Structures are written as SMILES.

Assay [1] has as its system Memory-impaired aged rats. Kind of assay: Radial Arm Maze task, 2-hr delay, acute brivaracetam or seletracetam. It counts as in vivo, rat. To be noted: 0.0625-4 mg/kg i.p. 30-40 min before test; repeated measures ANOVA (brivaracetam p=0.039, seletracetam p=0.009). How it is done:
(§1) The radial arm maze experiments uses acute administration of seletracetam (0-4 mg/kg), brivaracetam (0-4 mg/kg), or saline vehicle given by intraperitoneal injection (in a volume of 1 ml/kg) 30-40 min prior to test sessions. In the chronic treatment experiment, memory-impaired aged rats are implanted subcutaneously in the intrascapular region with osmotic mini-pumps (ALZET, Durect Corporation, Cupertino, Calif.) with brivaracetam (2 mg/kg/day) or saline vehicle starting two weeks prior to assessment in the water maze.
A radial arm maze (RAM) task is used to assess effects of acute drug treatment with seletracetam and brivaracetam. This protocol allows within-subject assessment across drugs at different doses. The radial maze consists of eight arms projecting from each side of an octagonal center platform, with a food well located at the distal end of each arm. Plexiglas blocks can be positioned to prevent entry into any arm. Extra-maze cues are provided in the room surrounding the maze and illumination is provided by an overhead light.
Pre-training, as described in detail in Chappell et al. Neuropharmacology 37: 481-487, (1998), consists of habituation, standard win-shift training, and win-shift training with delays interposed between information and memory test phases. […]

Assay [2] has as its system Memory-impaired aged rats. Put plainly: water maze probe test after chronic brivaracetam (osmotic mini-pumps). It counts as in vivo, rat. To be noted: 2 mg/kg/day. The procedure:
as §1
Rats are trained and tested in a novel water maze environment to assess the effect of drug treatment. The water maze used here is housed in a different building and is surrounded by curtains with a novel set of patterns relative to the maze used for initial assessment of cognitive status. The training protocol consists of 6 trials per day for 2 days to locate a submerged escape platform. On each trial, a rat is released in the maze from one of four equally spaced starting positions around the perimeter of the pool. The starting position varies from trial to trial. […] The rat is then removed from the platform and placed in a holding cage for another 40 s before the next trial. Approximately 24 hrs after the last training trial, a probe test in the absence of the escape platform is given to assess spatial memory.

Assay [3] has as its system MAM-treated rats. The conditions noted are these: cited from earlier work.
For the next assay, the system named is aged-impaired (AI) rats. Kind of assay: eight-arm Radial Arm Maze task, one-hour delay (levetiracetam, valproate, combination). The class given is in vivo, rat. To be noted: valproate on its own. The procedure:
The effects of levetiracetam on the spatial memory retention of aged-impaired (AI) rats are assessed in a Radial Arm Maze (RAM) behavioral task using vehicle control and five different dosage levels of levetiracetam (1.25 mg/kg/day, 2.5 mg/kg/day, 5 mg/kg/day, 10 mg/kg/day and 20 mg/kg/day). RAM behavioral tasks are preformed on ten AI rats. All six treatment conditions are tested on all ten rats, as described above for the MWM test. The RAM apparatus used consists of eight equidistantly-spaced arms. An elevated maze arm (7 cm width×75 cm length) projects from each facet of an octagonal center platform (30 cm diameter, 51.5 cm height). Clear side walls on the arms are 10 cm high and are angled at 65° to form a trough. A food well (4 cm diameter, 2 cm deep) is located at the distal end of each arm. Froot Loops™ (Kellogg Company) are used as rewards. Blocks constructed of Plexiglas™ (30 cm height×12 cm width) can be positioned to prevent entry to any arm. Numerous extra maze cues surrounding the apparatus are also provided. The AI rats are initially subjected to a pre-training test (Chappell et al. Neuropharmacology 37: 481-487, 1998). The pre-training test consists of a habituation phase (4 days), a training phase on the standard win-shift task (18 days) and another training phase (14 days) in which a brief delay is imposed between presentation of a subset of arms designated by the experimenter (e.g., 5 arms available and 3 arms blocked) and completion of the eight-arm win-shift task (i.e., with all eight arms available). In the habituation phase, rats are familiarized to the maze for an 8-minute session on four consecutive days. In each of these sessions food rewards are scattered on the RAM, initially on the center platform and arms and then progressively confined to the arms. After this habituation phase, a standard training protocol is used, in which a food pellet is located at the end of each arm. Rats receive one trial each day for 18 days. Each daily trial terminates when all eight food pellets have been obtained or when either 16 choices are made or 15 minutes had elapsed. After completion of this training phase, a second training phase is carried out in which the memory demand is increased by imposing a brief delay during the trial. At the beginning of each trial, three arms of the eight-arm maze are blocked. Rats are allowed to obtain food on the five arms to which access is permitted during this initial ‘information phase’ of the trial. Rats are then removed from the maze for 60 seconds, during which time the barriers on the maze are removed, thus allowing access to all eight arms. Rats are then placed back onto the center platform and allowed to obtain the remaining food rewards during this ‘retention test’ phase of the trial. The identity and configuration of the blocked arms varies across trials. The number of “errors” the AI rats make during the retention test phase is tracked. An error occurs in the trial if the rats enter an arm from which food had already been retrieved in the pre-delay component of the trial, or if it re-visits an arm in the post-delay session that has already been visited. After completion of the pre-training test, rats are subjected to trials with more extended delay intervals, i.e., a one-hour delay, between the information phase (presentation with some blocked arms) and the retention test (presentation of all arms). During the delay interval, rats remain off to the side of the maze in the testing room, on carts in their individual home cages. AI rats are pretreated 30-40 minutes before daily trials with a one-time shot of the following six conditions: 1) vehicle control (0.9% saline solution); 2) levetiracetam (1.25 mg/kg/day); 3) levetiracetam (2.5 mg/kg/day); 4) levetiracetam (5 mg/kg/day); 5) levetiracetam (10 mg/kg/day); 6) levetiracetam (20 mg/kg/day); […] Injections are given every other day with intervening washout days. Each AI rat is treated with all six conditions within 23 days of testing. […]

Assay [4] has as its system MAM-treated rats. To be noted: rat, in vivo; cited from earlier work.

For `CC[C@@H](C(N)=O)N1C[C@H](C=C(F)F)CC1=O` [seletracetam], in assay [1], the “number of errors in the retention phase after the 2-hr delay, effect of dose” value is “significant effect as a function of dose”.
As for `CCC[C@@H]1CC(=O)N([C@@H](CC)C(N)=O)C1` [brivaracetam], the “number of errors in the retention phase after the 2-hr delay, effect of dose” value in assay [1] is recorded as “significant effect as a function of dose”. In addition, the “spatial bias for the target quadrant compared to the other quadrants” value in assay [2] (14 days, n=3/group, t(2)=10.000, p=0.010) is reported as “significant spatial bias”. For the same compound, in assay [2] (t(4)=3.109, p=0.036), the “time in the target annulus versus vehicle-treated rats” value is “significantly more time in the target annulus”. Further, in assay [2] (t(4)=3.881, p=0.018), the “time in the target quadrant versus vehicle-treated rats” value was “significantly more time in the target quadrant”.
On to `C#Cc1ccc2c(c1)C(c1ccccc1F)=N[C@H](C)c1c(C(=O)OCC)ncn1-2` [SH-053-2′F—R—CH3], for which the “increased locomotor response to amphetamine in MAM-treated rats” value in the assay with MAM-treated rats [3] (rat, in vivo) is listed as “reduced”. In the assay on MAM-treated rats [3] (saline-treated and MAM-treated animals), the “cortical-evoked responses of HPC neurons” value was “diminished cortical-evoked responses”. The “number of spontaneously active DA neurons in the VTA of MAM rats” value in the assay with MAM-treated rats [3] (systemic or infused into the ventral HPC, to levels of saline-treated rats) is on record as “reduces the number of spontaneously active DA neurons”.
Take `CCCC(CCC)C(=O)O` [valproate]: the “reducing the number of errors in the radial arm maze” value in the assay on aged-impaired (AI) rats (25 mg/kg subcutaneous) was “not at 25 mg/kg or 50 mg/kg”; in the assay on aged-impaired (AI) rats (50 mg/kg subcutaneous), “not at 25 mg/kg or 50 mg/kg”; with aged-impaired (AI) rats (100 mg/kg subcutaneous) it was “effective at 100 mg/kg”.
Turning to `NC1=N[C@H](O)[C@H]2[C@H]3O[C@]4(O)O[C@@H]([C@@H](O)[C@@]2(N1)[C@@H]4O)[C@]3(O)CO` [tetrodotoxin], in the assay on MAM-treated rats [4], the “augmented amphetamine-induced locomotor behavior” value is “normalized” and the “elevated DA neuron population activity” value was “completely reversed”.
